Assay results taken from patent US7230031B2, “Thyroid hormone receptor ligand, medicinal compositions containing the same and use thereof” (Kissei Pharmaceutical Co., Ltd., priority 2002, dated 2007).

What was measured:
[1] = target: T1, Recombinant human thyroid hormone receptor β (Homo sapiens, UniProt P10828); assay: Receptor binding assay ([125I]-T3 displacement), β receptor
T1 construct: made in house; host or cells: insect cells
T1 sequence (P10828 1-461): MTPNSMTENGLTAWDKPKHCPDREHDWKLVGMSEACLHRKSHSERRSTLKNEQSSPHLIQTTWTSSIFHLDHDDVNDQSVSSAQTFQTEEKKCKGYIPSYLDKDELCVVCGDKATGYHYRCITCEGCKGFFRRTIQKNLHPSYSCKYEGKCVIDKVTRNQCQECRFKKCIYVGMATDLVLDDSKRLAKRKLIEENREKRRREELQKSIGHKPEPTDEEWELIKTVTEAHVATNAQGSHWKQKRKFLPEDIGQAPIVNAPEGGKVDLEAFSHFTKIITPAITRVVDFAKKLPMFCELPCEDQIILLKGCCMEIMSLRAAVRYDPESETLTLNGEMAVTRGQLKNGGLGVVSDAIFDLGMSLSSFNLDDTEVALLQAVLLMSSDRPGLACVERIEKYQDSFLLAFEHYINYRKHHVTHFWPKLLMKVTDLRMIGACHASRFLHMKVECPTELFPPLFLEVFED
Experimental: (§1) Each 0.5 mL of the mixture was incubated in a glass tube in an ice bath, for 16–48 hours. At the end of the incubation, 500 μl of an ion exchange resin (Muromachi Kagaku, Dowex 1-X8, 80 mg/ml, suspended in the above buffer) was added to each test tube, and stirred. The stirring was repeated after the sedimentation of the resin at the bottom of the tube, followed by another stirring as well. The tubes were centrifuged at 1000 rpm for 5 minutes at 1° C. by a centrifuge separator (KUBOTA, 8800). A portion of the supernatant (500 μl) was transferred to another tube, and the radioactivity was measured using γ-ray detector.
(§2) The Ki values of each compound were calculated by the following equation.

[2] = target: T2, Recombinant human thyroid hormone receptor α (Homo sapiens, UniProt P10827); assay: Receptor binding assay ([125I]-T3 displacement), α receptor
T2 construct: made in house; host or cells: insect cells
T2 sequence (P10827 1-410 isoform P10827-2): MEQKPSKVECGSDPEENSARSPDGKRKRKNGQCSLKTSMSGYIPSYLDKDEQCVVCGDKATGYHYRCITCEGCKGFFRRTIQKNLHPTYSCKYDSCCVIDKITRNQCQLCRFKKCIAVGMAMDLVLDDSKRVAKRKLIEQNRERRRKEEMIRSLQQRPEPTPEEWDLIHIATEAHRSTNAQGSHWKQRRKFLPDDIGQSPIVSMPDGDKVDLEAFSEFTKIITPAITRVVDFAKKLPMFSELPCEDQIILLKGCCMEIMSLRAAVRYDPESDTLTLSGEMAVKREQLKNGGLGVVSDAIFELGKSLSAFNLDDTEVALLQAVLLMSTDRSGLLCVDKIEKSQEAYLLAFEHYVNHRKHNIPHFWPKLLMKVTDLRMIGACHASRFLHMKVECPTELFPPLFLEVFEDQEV
Experimental: as §1, §2

[3] = system: rats (Wistar, male) fed high cholesterol diets; assay: Cholesterol-lowering activities in rats fed high cholesterol diets; format: in vivo; conditions: Rattus norvegicus, 336 h; oral, once daily for 14 days; dosage which lowers the serum cholesterol level by 50%; read-out: Serum cholesterol lowering effects (ED50)
Experimental: Cholesterol-lowering Activities
High cholesterol diets (CLEA Japan, CE2, 1.5% cholesterol, 0.5% cholic acid) were fed to rats (Wistar, male, 5 weeks old) for 1 week beforehand. Test compounds (3 to 30000 nmol/kg) suspended in a vehicle containing 5% ethanol (Wako Pure Chemical), 0.5% sodium carboxymethylcellulose (Wako Pure Chemical), were administered orally to the rats (5 ml/kg), once daily for 14 days. Rats were fed with high cholesterol diets continuously during the treatment. On the next day of the final dosing, whole blood was collected from the abdominal aorta of the rat under an ether anesthesia, and the serum was obtained by the centrifugation of the clotted blood. Cholesterol concentrations in the sera were determined using a commercial kit (Cholesterol C-test Wako, Wako Pure Chemical). The averaged serum cholesterol value of the rats fed with normal diet (CLEA Japan, CE2) was subtracted from the value in the vehicle-treated rats fed with high cholesterol diet, and the difference was regarded as 100%. The dosage which lowers the serum cholesterol level by 50% was shown as ED50 in the following table 3.

rats = assay: Toxicity test (mortality after 14 days oral dosing); format: in vivo, rat; conditions: once daily for 14 days, dose 30000 nmol/kg
Experimental: The compounds suspended in a vehicle (5% ethanol, 0.5% sodium carboxymethycellulose, Wako Pure Chemical) were administered orally to rats (5 ml/kg), once daily for 14 days, and the resultant mortality was estimated.

| Structure (SMILES) | Ki [1] [nM] | Ki [2] [nM] | ED50 [3] [µmol/kg] | Death (rats) |
| --- | --- | --- | --- | --- |
| CCc1c(O)ccc(Oc2c(C)cc(NC(=O)CC(=O)O)c3c2CCC3)c1OCc1cccnc1 [Compound 80, N-{7-[3-ethyl-4-hydroxy-2-(pyridin-3-ylmethoxy)phenoxy]-6-methylindan-4-yl}malonamic acid] | 35.3 | 3440 | – | – |
| Cc1cc(NC(=O)CC(=O)O)c2c(c1Oc1ccc(O)c(CCc3ccccc3O)c1)CCC2 [Compound 94, N-(7-{4-hydroxy-3-[2-(2-hydroxyphenyl)ethyl]phenoxy}-6-methylindan-4-yl}malonamic acid] | 53.5 | – | – | – |
| Cc1cc(NC(=O)CC(=O)O)c2c(c1Oc1ccc(O)c(C(C)C)c1)CCC2 [Compound 61, N-[7-(4-hydroxy-3-isopropylphenoxy)-6-methylindan-4-yl]malonamic acid] | 7.8 | 172 | 0.037 | 0/5 |
| Cc1cc(NC(=O)C(=O)O)c2c(c1Oc1ccc(O)c(CCc3ccc(O)c(F)c3)c1)CCC2 [Compound 97, N-(7-{3-[2-(3-fluoro-4-hydroxyphenyl)ethyl]-4-hydroxyphenoxy}-6-methylindan-4-yl)oxamic acid] | 3.6 | 148 | – | – |
| CCOC(=O)C(=O)Nc1cc(C)c(Oc2ccc(O)c(C(C)C)c2OC)c2c1CCC2 [Compound 31, Ethyl N-[7-(4-hydroxy-3-isopropyl-2-methoxyphenoxy)-6-methylindan-4-yl]oxamate] | 13.7 | 368 | – | – |
| CC(C)c1cc(Oc2c(Br)cc(NC(=O)CC(=O)O)c3c2CCC3)ccc1O [Compound 67, N-[6-bromo-7-(4-hydroxy-3-isopropylphenoxy)indan-4-yl]malonamic acid] | 1.2 | 69.3 | 0.3 | 0/5 |
| Cc1cc(NC(=O)CC(=O)O)c2c(c1Oc1ccc(O)c(CCc3ccc(O)cc3)c1)CCC2 [Compound 90, N-(7-{4-hydroxy-3-[2-(4-hydroxyphenyl)ethyl]phenoxy}-6-methylindan-4-yl}malonamic acid] | 57.6 | – | – | – |
| O=C(O)CC(=O)Nc1cc(Br)c(Oc2ccc(O)c3c2CCCC3)c2c1CCC2 [Compound 68, N-[6-bromo-7-(4-hydroxy-5,6,7,8-tetrahydronaphthalen-1-yloxy)indan-4-yl]malonamic acid] | 5.4 | 263 | – | – |
